Reference: PubChem BioAssay (NCI)
Values joined by “and” are separate entries in the source; they are usually repeats but may differ in a detail not shown here. Identical values can stand only once.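 All cell lines were grown in 96-well plates and treated with compound for 48 hours. The concentration for 50% growth inhibition is given as GI50. TGI denotes the concentration required for complete inhibition of growth.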

Columns and labels:
Assay in all cases: NCI anticancer screen, dose series, 48 h
DU-145 prostate = tested on: DU-145 prostate
IGROV1 ovarian = tested on: IGROV1 ovarian
MALME-3M melanoma = tested on: MALME-3M melanoma
MDA-MB-231 breast = tested on: MDA-MB-231 breast
SF-268 CNS = tested on: SF-268 CNS
SF-539 CNS = tested on: SF-539 CNS
SK-MEL-5 melanoma = tested on: SK-MEL-5 melanoma
SN12C renal = tested on: SN12C renal
SR leukemia = tested on: SR leukemia
SW-620 colon = tested on: SW-620 colon

| Structure (SMILES) | TGI (DU-145 prostate) | TGI (IGROV1 ovarian) | TGI (MALME-3M melanoma) | TGI (MDA-MB-231 breast) | TGI (SF-268 CNS) | TGI (SF-539 CNS) | TGI (SK-MEL-5 melanoma) | TGI (SN12C renal) | TGI (SR leukemia) | TGI (SW-620 colon) | GI50 (DU-145 prostate) | GI50 (IGROV1 ovarian) | GI50 (MALME-3M melanoma) | GI50 (MDA-MB-231 breast) | GI50 (SF-268 CNS) | GI50 (SF-539 CNS) | GI50 (SN12C renal) | GI50 (SR leukemia) | GI50 (SW-620 colon) | GI50 (SK-MEL-5 melanoma) |
| --- | --- | --- | --- | --- | --- | --- | --- | --- | --- | --- | --- | --- | --- | --- | --- | --- | --- | --- | --- | --- |
| [N-]=[N+]=CC(=O)COC(=O)c1ccccc1 | > 100 µM | > 100 µM | > 100 µM | > 100 µM | > 100 µM | > 100 µM | > 100 µM | > 100 µM | > 100 µM | > 100 µM | – | – | – | – | – | – | – | – | – | – |
| C[C@]12CC[C@H]3[C@@H](CC[C@]4(O)C[C@@H](O)CC[C@]34CO)[C@@]1(O)CC[C@@H]2C1=CC(=O)OC1 | 2.24 µM | > 100 µM | 6.47 µM | > 51.3 µM | 3.25 µM | 2.41 µM | 5.08 µM | 11 µM | > 100 µM | > 27 µM | – | – | – | – | – | – | – | – | – | – |
| Nc1nc(N)nc(CC(=O)O)n1 | > 100 µM | > 100 µM | > 100 µM | > 100 µM | > 100 µM | > 100 µM | > 100 µM | > 100 µM | > 100 µM | > 100 µM | – | – | – | – | – | – | – | – | – | – |
| COc1cc2c(c(OC)c1OC)-c1ccc(O)c(=O)cc1[C@@H](NC(C)=O)CC2 | > 100 µM | > 100 µM and 82.4 µM | 97.7 µM | > 100 µM and 41.7 µM | > 100 µM | 45.5 µM and 44 µM | 32.2 µM and 20.5 µM | 88.2 µM and 35 µM | 97.9 µM and 18.1 µM | > 100 µM and 82.5 µM | 9.82 µM | 4.76 µM | 19.2 µM | 4700 nM | 7.42 µM | 6.08 µM | 7.93 µM | 4740 nM | 7 µM | – |
| CN(C)CCCc1c2ccccc2nc2ccc(Cl)cc12 | 58.7 µM | 31 µM | 30.1 µM | 31.9 µM | 33.3 µM | 33.6 µM | 28.2 µM | 26.1 µM | 44.1 µM | 98.4 µM | – | – | – | – | – | – | – | – | – | – |
| CCC[CH2][Sn]1([CH2]CCC)[O]C(=O)c2ccc(N)cc2[O]1 | 2.52 µM | 2.97 µM | 1.18 µM | 1.42 µM | 1.5 µM | 1.94 µM | 2.15 µM | 2.37 µM | – | 1.09 µM | 1.26 µM | 1.51 µM | 0.144 µM | 185 nM | 0.259 µM | 0.691 µM | 0.88 µM | 549 nM | 0.224 µM | 692 nM |
| O=C(N/N=C/c1ccc(Cl)cc1)c1[nH]c2ccc(Cl)cc2c1-c1ccccc1 | 0.367 µM | 12.1 µM | 76.4 µM | 0.633 µM | > 42.3 µM | 0.267 µM | 0.469 µM | > 70.4 µM | 2.09 µM | > 100 µM | 0.104 µM | 0.0523 µM | 17.8 µM | 201 nM | 0.161 µM | 0.0947 µM | 0.206 µM | 133 nM | 0.159 µM | 214 nM |
| Oc1c(Cl)cc(Cl)cc1Sc1cc(Cl)cc(Cl)c1O | 20.8 µM and 15.5 µM | 26.2 µM and 15 µM | 13.7 µM and 6.83 µM | 6.07 µM and 4.34 µM | 17.3 µM and 14 µM | 16.1 µM and 11.8 µM | 4.04 µM and 4.03 µM | 13 µM and 11.4 µM | 13.6 µM and > 100 µM | 13.2 µM and 12.5 µM | 5.01 µM and 4.18 µM | 6.03 µM and 2.97 µM | 3.32 µM and 2.51 µM | 2590 nM and 1860 nM | 4.4 µM and 3.44 µM | 3.46 µM and 3.4 µM | 3.13 µM and 3.14 µM | 3090 nM and 4960 nM | 3.32 µM and 3.06 µM | 1840 nM and 1740 nM |
| CCOC(=O)Nc1nc2cc(OCC)ccc2s1 | > 100 µM | > 100 µM | > 100 µM | > 100 µM | > 100 µM | > 100 µM | > 100 µM | > 100 µM | > 100 µM | > 100 µM | > 100 µM | > 91.1 µM | > 100 µM | > 100000 nM | > 79.7 µM | > 100 µM | > 84.4 µM | 1520 nM | 4.74 µM | 8440 nM |
| C/C(=N\NC(=S)N1CCN(c2ccccn2)CC1)c1nccs1 | 14.1 µM | 20.2 µM | 18.5 µM | 20 µM | > 54.2 µM | 4.37 µM | 6.3 µM | 15.9 µM | 4.63 µM | 20.2 µM | – | 0.0817 µM | – | 796 nM | – | – | – | 236 nM | – | – |
| CCCCN(CCCC)CCc1c(C)cc(C)c(CCN(CCCC)CCCC)c1O | > 100 µM | 35.6 µM | 11.3 µM | 8.56 µM | > 100 µM | 28.2 µM | 4.1 µM | 9.43 µM | 12.7 µM | > 100 µM | 3.76 µM | 3.69 µM | 2.94 µM | 2430 nM | 3.23 µM | 3.51 µM | 2.85 µM | 2160 nM | 2.88 µM | 1970 nM |
| CCCCCCNC(=O)Oc1ccc(/C(=C(/C)Cc2ccc(OC)cc2)c2ccc(OCCN(C)C)cc2)cc1 | 10.4 µM | 9.6 µM | 9.64 µM | 9.65 µM | 10.9 µM | 9.64 µM | 10.2 µM | 9.44 µM | 6.55 µM | 9.59 µM | 5.55 µM | 4.62 µM | 4.49 µM | 5000 nM | 5.07 µM | 5.01 µM | 4.84 µM | 1320 nM | 4.86 µM | 5460 nM |
| COc1ccc(NC(=O)n2nc(/C=C\c3ccc(O)c(OC)c3)cc2/C=C\c2ccc(O)c(OC)c2)cc1 | 24.6 µM | 57 µM | 38.6 µM | 83.5 µM | 36.4 µM | 13.6 µM | 16.1 µM | 33.7 µM | 12.8 µM | 61.6 µM | 3.99 µM | 4.49 µM | 3.66 µM | 4940 nM | 3.21 µM | 2.35 µM | 3.05 µM | 1520 nM | 5.51 µM | 3670 nM |
| COC(=O)c1cc(-c2ccc(OC)cc2)[nH]c1N/N=C/c1c(Cl)cccc1Cl | 0.831 µM | – | – | 3.24 µM | 10.4 µM | 0.553 µM | 3.5 µM | 18.7 µM | 1.18 µM | 97.5 µM | 0.229 µM | – | 0.316 µM | 462 nM | 0.203 µM | 0.172 µM | 0.507 µM | 90.9 nM | 0.26 µM | 198 nM |
